“And” between values parts separate entries of the source, which are not always exact repeats. Identical values can stand only once. Inconclusive results and toxic doses are left out. The calls were made as follows: active = survival T/C of 150% or more; inactive = T/C below 125% in these data.
Test system: P388 leukemia ip, CD2F1 mice, survival T/C
Experiment: NCI In Vivo Anticancer Drug Screen. Data for tumor model P388 Leukemia (intraperitoneal) in CD2F1 (CDF1) mice
Conditions: endpoint: median survival time, higher = longer survival
In short: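 Mice carrying the transplanted tumor received test compound or vehicle. Survival was recorded in each group, and the value is the treated-group measurement divided by that of the vehicle-treated control group.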

[1] = dose: 60.0 mg/kg/injection, schedule: Q01DX005 (ip), vehicle: saline with Tween-80
[2] = dose: 120.0 mg/kg/injection, schedule: Q01DX005 (ip), vehicle: saline with Tween-80
[3] = dose: 240.0 mg/kg/injection, schedule: Q01DX005 (ip), vehicle: saline with Tween-80
[4] = dose: 25.0 mg/kg/injection, schedule: Q01DX009 (ip), vehicle: saline with Tween-80
[5] = dose: 50.0 mg/kg/injection, schedule: Q01DX009 (ip), vehicle: saline with Tween-80
[6] = dose: 100.0 mg/kg/injection, schedule: Q01DX009 (ip), vehicle: saline with Tween-80
[7] = dose: 200.0 mg/kg/injection, schedule: Q01DX009 (ip), vehicle: saline with Tween-80
[8] = dose: 400.0 mg/kg/injection, schedule: Q01DX009 (ip), vehicle: saline with Tween-80
[9] = dose: 200.0 mg/kg/injection, schedule: Q01DX009 (ip), vehicle: water
[10] = dose: 50.0 mg/kg/injection, schedule: Q01DX005 (ip), vehicle: Klucel (hydroxypropylcellulose) (HPC)
[11] = dose: 100.0 mg/kg/injection, schedule: Q01DX005 (ip), vehicle: Klucel (hydroxypropylcellulose) (HPC)
[12] = dose: 200.0 mg/kg/injection, schedule: Q01DX005 (ip), vehicle: Klucel (hydroxypropylcellulose) (HPC)
[13] = dose: 50.0 mg/kg/injection, schedule: Q01DX009 (ip), vehicle: Klucel (hydroxypropylcellulose) (HPC)
[14] = dose: 100.0 mg/kg/injection, schedule: Q01DX009 (ip), vehicle: Klucel (hydroxypropylcellulose) (HPC)
[15] = dose: 12.5 mg/kg/injection, schedule: Q01DX009 (ip), vehicle: water
[16] = dose: 25.0 mg/kg/injection, schedule: Q01DX009 (ip), vehicle: water
[17] = dose: 50.0 mg/kg/injection, schedule: Q01DX009 (ip), vehicle: water
[18] = dose: 100.0 mg/kg/injection, schedule: Q01DX009 (ip), vehicle: water

Measured: T/C

COc1ccc(-c2nn(-c3ccccc3)c(-c3ccc(OC)cc3)c2N=Nc2ccc(S(=O)(=O)Nc3nnc(C)s3)cc2)cc1
inactive: dose: 100.0 mg/kg/injection, schedule: Q01DX001 (ip), vehicle: saline with Tween-80 100 % of control | dose: 200.0 mg/kg/injection, schedule: Q01DX001 (ip), vehicle: saline with Tween-80 89 % of control | dose: 400.0 mg/kg/injection, schedule: Q01DX001 (ip), vehicle: saline with Tween-80 93 % of control

CN1C=C(C#N)CCC1Sc1ccc(Cl)cc1 (configuration not stated)
inactive: [1] 105 % of control | [2] 103 % of control | [3] 104 % of control

COc1cccc2cc(C)[nH]c12
inactive: [4] 97 % of control | [5] 97 % of control | [6] 103 % of control

O=S(=O)(OC1=CCCCC1)C(F)(F)F
inactive: [5] 100 % of control | [6] 109 % of control | [7] 112 % of control | [8] 115 % of control

CN=C1c2ccccc2C2(c3ccccc3)C1N2C (configuration not stated)
inactive: dose: 100.0 mg/kg/injection, schedule: Q04DX003 (ip), vehicle: saline with Tween-80 104 % of control | dose: 200.0 mg/kg/injection, schedule: Q04DX003 (ip), vehicle: saline with Tween-80 100 % of control

C=CCOCC1CN2CCOC2(C)O1 (configuration not stated)
inactive: [9] 105 % of control | dose: 400.0 mg/kg/injection, schedule: Q01DX009 (ip), vehicle: water 97 % of control | dose: 800.0 mg/kg/injection, schedule: Q01DX009 (ip), vehicle: water 105 % of control | dose: 1600.0 mg/kg/injection, schedule: Q01DX009 (ip), vehicle: water 102 % of control

Cc1nc2ccccc2c(=O)n1NC(=S)Nc1ccc(Cl)cc1
inactive: dose: 100.0 mg/kg/injection, schedule: Q04DX002 (ip), vehicle: saline with Tween-80 90 % of control | dose: 200.0 mg/kg/injection, schedule: Q04DX002 (ip), vehicle: saline with Tween-80 88 % of control | dose: 400.0 mg/kg/injection, schedule: Q04DX002 (ip), vehicle: saline with Tween-80 90 % of control

C/C=C/CC(/C(C)=N\[N+](C)(C)C)c1ccccc1 (configuration not stated)
inactive: dose: 100.0 mg/kg/injection, schedule: Q04DX003 (ip), vehicle: saline 107 % of control | dose: 200.0 mg/kg/injection, schedule: Q04DX003 (ip), vehicle: saline 97 % of control | dose: 400.0 mg/kg/injection, schedule: Q04DX003 (ip), vehicle: saline 99 % of control

COC(=O)CCC(=O)N(C)CCc1c[nH]c2ccccc12
inactive: [6] 90 % of control | [7] 90 % of control | [8] 90 % of control

O=C(CC(=O)c1ccc(Cl)s1)C(=O)NC1C2CC3CC(C2)CC1C3 (configuration not stated)
inactive: dose: 7.5 mg/kg/injection, schedule: Q01DX005 (ip), vehicle: saline with Tween-80 100 % of control | dose: 15.0 mg/kg/injection, schedule: Q01DX005 (ip), vehicle: saline with Tween-80 102 % of control | dose: 30.0 mg/kg/injection, schedule: Q01DX005 (ip), vehicle: saline with Tween-80 100 % of control | [1] 94 % of control and 95 % of control

CCCCOc1ccc(-c2c(COC(=O)NC)c(COC(=O)NC)c(C)n2C)cc1
inactive: dose: 7.5 mg/kg/injection, schedule: Q01DX009 (ip), vehicle: distilled water + Tween-80 120 % of control

COCC1OC1COC (configuration not stated)
inactive: dose: 50.0 mg/kg/injection, schedule: Q01DX005 (ip), vehicle: saline 107 % of control | dose: 100.0 mg/kg/injection, schedule: Q01DX005 (ip), vehicle: saline 104 % of control | dose: 200.0 mg/kg/injection, schedule: Q01DX005 (ip), vehicle: saline 106 % of control

CN(C)c1cc(=O)c2ccc3ccccc3c2o1
inactive: [5] 96 % of control | [6] 96 % of control | [7] 93 % of control

FC(F)(Cl)c1nc2nc(Cl)c(Cl)nc2[nH]1
inactive: dose: 50.0 mg/kg/injection, schedule: Q01DX009 (ip), vehicle: other 100 % of control | dose: 50.0 mg/kg/injection, schedule: Q04DX003 (ip), vehicle: other 95 % of control | dose: 100.0 mg/kg/injection, schedule: Q01DX009 (ip), vehicle: other 114 % of control | dose: 100.0 mg/kg/injection, schedule: Q04DX003 (ip), vehicle: other 110 % of control | dose: 200.0 mg/kg/injection, schedule: Q04DX003 (ip), vehicle: other 105 % of control

O=C(CC(=NCCCN=C(CC(=O)c1ccccc1)c1ccccc1)c1ccccc1)c1ccccc1
inactive: [5] 96 % of control | [6] 100 % of control | [7] 100 % of control

OC1CCC(C2C3CCCCC3C3CCCCC3C2C2CCC(O)CC2)CC1 (configuration not stated)
inactive: dose: 50.0 mg/kg/injection, schedule: Q01DX005 (ip), vehicle: saline with Tween-80 99 % of control | dose: 100.0 mg/kg/injection, schedule: Q01DX005 (ip), vehicle: saline with Tween-80 99 % of control

COC(=O)CCCCC1=CCC2C(=O)C=C(O)C2C1 (configuration not stated)
inactive: [1] 87 % of control | [2] 106 % of control | [3] 116 % of control

CCNC(=O)NS(=O)(=O)c1ccc(Sc2ccc(C)cc2)nc1
inactive: [1] 98 % of control | [2] 101 % of control | [3] 94 % of control

O=C(CCCl)N/N=C/c1ccccc1
inactive: dose: 2.5 mg/kg/injection, schedule: Q01DX009 (ip), vehicle: saline 104 % of control | dose: 5.0 mg/kg/injection, schedule: Q01DX009 (ip), vehicle: saline 98 % of control and 101 % of control | dose: 10.0 mg/kg/injection, schedule: Q01DX009 (ip), vehicle: saline 114 % of control and 115 % of control

C[N+]1(CCC(=O)c2ccccc2)CCCCC1
inactive: dose: 12.5 mg/kg/injection, schedule: Q01DX009 (ip), vehicle: saline 97 % of control | dose: 25.0 mg/kg/injection, schedule: Q01DX009 (ip), vehicle: saline 107 % of control

COC1(OC)C2(Cl)C(Cl)=C(Cl)C1(Cl)C1CCCCC12 (configuration not stated)
inactive: [1] 101 % of control | [2] 102 % of control | [3] 104 % of control

C/C(C=O)=C\c1ccc2c(c1)OCO2
inactive: [10] 104 % of control | [11] 97 % of control | [12] 106 % of control

OCc1c(CO)c(C(F)(F)F)n2c1CCC2
inactive: [13] 104 % of control | [14] 104 % of control

O=NNc1nccnn1
inactive: dose: 3.12 mg/kg/injection, schedule: Q01DX009 (ip), vehicle: water 105 % of control | dose: 6.25 mg/kg/injection, schedule: Q01DX009 (ip), vehicle: water 107 % of control | [15] 105 % of control | [16] 108 % of control and 111 % of control | [17] 114 % of control and 118 % of control | [18] 120 % of control | [9] 119 % of control

CON1C(=O)c2ccccc2C1=O
inactive: [6] 99 % of control | [7] 106 % of control | [8] 106 % of control

C=CC(C)n1[nH]c(=O)n(-c2ccc(O)c([N+](=O)[O-])c2)c1=O (configuration not stated)
inactive: [1] 100 % of control | [2] 98 % of control | [3] 94 % of control

O=C1CCC2(ON=C(c3ccccc3)C2Br)O1 (configuration not stated)
inactive: [5] 116 % of control | [6] 108 % of control | [7] 116 % of control

CC(=O)c1c(C)cc(C)c(C(C)=O)c1C
inactive: dose: 50.0 mg/kg/injection, schedule: Q01DX009 (ip), vehicle: saline 102 % of control | dose: 100.0 mg/kg/injection, schedule: Q01DX009 (ip), vehicle: saline 96 % of control | dose: 200.0 mg/kg/injection, schedule: Q01DX009 (ip), vehicle: saline 91 % of control

O=C(NC(=O)C1CCC(=O)N1Cc1ccccc1)NC1CCC(=O)N1Cc1ccccc1 (configuration not stated)
inactive: [1] 96 % of control | [2] 94 % of control

C=CC[N+](CC=C)(CC=C)CC[N+](CC=C)(CC=C)CC=C
inactive: dose: 12.5 mg/kg/injection, schedule: Q01DX009 (ip), vehicle: saline with Tween-80 97 % of control | [4] 101 % of control | [5] 105 % of control

COc1ccc(C(=S)SCCCC(=O)O)cc1
inactive: [13] 102 % of control | [14] 98 % of control | dose: 200.0 mg/kg/injection, schedule: Q01DX009 (ip), vehicle: Klucel (hydroxypropylcellulose) (HPC) 92 % of control

COC1N(Cc2ccccc2)C=C2C(=O)NC(=O)C3NC(c4ccccc4)C1(C)C23C (configuration not stated)
inactive: [10] 90 % of control | [11] 91 % of control | [12] 88 % of control and 92 % of control

NNS(=O)(=O)CCC(N)C(=O)O (configuration not stated)
inactive: [15] 100 % of control | [16] 107 % of control | [17] 107 % of control | [18] 98 % of control
